{"source": "paper PMC3602366", "about": "(Insect biochemistry and molecular biology, 2013)", "key": {"[1]": {"system": "SG acini", "settings": "paracrine factor; ref Kaufman et al., 1999; Šimo et al., 2011a; cited from earlier work"}, "[2]": {"system": "synganglion", "settings": "ref Kaufman, 1978; McSwain et al., 1992; cited from earlier work"}, "[3]": {"target": "MIP-R1 (I. scapularis myoinhibitory peptide receptor 1) (Ixodes scapularis, UniProt L7ZCA0)", "assay": "cell-based"}, "[4]": {"target": "SIFa-R (I. scapularis SIFamide receptor) (Ixodes scapularis, UniProt L7Z4E7)", "assay": "Receptor functional assay", "assay_type": "cell-based"}}, "note": "Where no end group is shown, it is not given here.", "data": [{"compound": "NCCc1ccc(O)c(O)c1", "note": "[Dopamine]", "values": [{"measurement": "activation of SG acini", "setting": "[1]", "result": "acts as a paracrine factor for the activation of SG acini for fluid secretion"}]}, {"compound": "CC[C@@H]1C(=O)OC[C@@H]1Cc1cncn1C", "note": "[pilocarpine]", "values": [{"measurement": "activation of the synganglion", "setting": "[2]", "result": "activates the synganglion"}]}, {"compound": "ASDWNRLSGMW-NH2 [MIP2]", "values": [{"measurement": "EC50", "setting": "[3]", "result": 0.032, "unit": "µM"}]}, {"compound": "AYRKPPFNGSIF-NH2 [SIFamide]", "values": [{"measurement": "EC50", "setting": "[4]", "result": 0.0058, "unit": "µM"}]}, {"compound": "ENHWNDLSGYW-NH2 [MIP3]", "values": [{"measurement": "EC50", "setting": "[3]", "result": 0.015, "unit": "µM"}]}, {"compound": "GGDWNALSGMW-NH2 [MIP1]", "values": [{"measurement": "EC50", "setting": "[3]", "result": 0.04, "unit": "µM"}]}]}
